Target: T1, Fatty-acid amide hydrolase 1 (Rattus norvegicus, UniProt P97612)
T1 sequence (P97612 whole entry): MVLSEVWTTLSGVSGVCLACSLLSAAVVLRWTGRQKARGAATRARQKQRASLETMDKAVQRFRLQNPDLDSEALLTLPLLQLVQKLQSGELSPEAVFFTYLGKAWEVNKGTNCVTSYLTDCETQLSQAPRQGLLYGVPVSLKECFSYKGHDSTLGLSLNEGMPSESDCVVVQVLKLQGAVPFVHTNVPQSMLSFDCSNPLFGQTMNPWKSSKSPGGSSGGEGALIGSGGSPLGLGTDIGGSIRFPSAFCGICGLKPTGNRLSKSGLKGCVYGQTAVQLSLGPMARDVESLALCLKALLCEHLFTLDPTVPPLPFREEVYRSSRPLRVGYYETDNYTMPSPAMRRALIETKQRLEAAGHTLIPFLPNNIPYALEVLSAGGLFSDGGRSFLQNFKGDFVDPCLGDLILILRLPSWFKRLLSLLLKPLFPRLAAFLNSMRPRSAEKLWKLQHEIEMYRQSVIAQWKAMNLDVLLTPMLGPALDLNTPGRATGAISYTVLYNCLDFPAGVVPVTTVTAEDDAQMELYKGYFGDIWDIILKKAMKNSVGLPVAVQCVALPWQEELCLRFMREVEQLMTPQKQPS
Assay: Inhibitory activity against fatty acid amide hydrolase (FAAH)

| Ki [nM] | Structure (SMILES) |
| --- | --- |
| 150 | CCCCCCCC/C=C\CCCCCCCC(=O)c1nc2ccccc2o1 |
| 2.3 | CCCCCCCC/C=C\CCCCCCCC(=O)c1nc2ncccc2o1 |
| 100 | CCCCCCCC/C=C\CCCCCCCC(=O)c1ncco1 |
